According to article PMC8165102 (International Journal of Nanomedicine, 2021):
≈ marks a conversion by molar mass, not a printed value.

Columns and labels:
[1] = tested on: guinea pig papillary muscle; conditions: 0.4 µM; cited from earlier work
[2] = cited from earlier work
[3] = Surfactant-assisted rapid release of BF211@Lipo; type: physicochemical

| Compound | effect on papillary muscle [1] | solubility [2] [µg/mL] | release-promoting effect on BF211@Lipo [3] |
| --- | --- | --- | --- |
| C[C@]12CC[C@H](O)C[C@H]1CC[C@@H]1[C@@H]2CC[C@]2(C)[C@@H](c3ccc(=O)oc3)CC[C@]12O [BF, Bufalin] | arrhythmias | 10 (≈ 25.9 µM) | – |
| Tween 80 | – | – | weak and unregulated release-promoting effect |
